Consider 45 molecules from paper PMC11129182, “Development of Inhibitors, Probes, and PROTAC Provides a Complete Toolbox to Study PARK7 in the Living Cell” (Journal of Medicinal Chemistry, 2024).

The structures appear in SMILES notation.

For one assay, the target named is T1, PARK7 (Homo sapiens, UniProt Q99497).
T1 sequence (Q99497 1-189): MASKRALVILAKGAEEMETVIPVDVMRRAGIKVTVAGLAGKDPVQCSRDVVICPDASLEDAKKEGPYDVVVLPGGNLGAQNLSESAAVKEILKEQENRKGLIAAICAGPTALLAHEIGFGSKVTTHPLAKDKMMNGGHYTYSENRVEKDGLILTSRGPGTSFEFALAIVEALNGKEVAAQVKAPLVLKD
Nature of the assay: High-throughput screen of the crude compound library, PARK7 fluorescence polarization (FP) assay with FP reagent JYQ-107. Conditions: 1.25 µM, crude compound library, FP reagent JYQ-107; read-out: HTS FP assay %Inhibition (1.25 µM). It counts as biochemical. For orientation: Polarisation of emitted light reports the rotation of a fluorescent probe.
As usually defined, the inhibition is the change of the read-out against control, counted positive when it falls. In the case of `CCCC(=O)N1CCc2nc(NC(=O)[C@@H]3CCN(C#N)C3)sc2C1` [compound 394], the inhibition at 1.25 µM was found to be 70.5%.
Take `CC(=O)CCCCC(=O)N1CCc2nc(NC(=O)[C@@H]3CCN(C#N)C3)sc2C1` [compound 419]: the inhibition at 1.25 µM stood at 74%.
With `CCCN(CCC)S(=O)(=O)c1ccc(C(=O)N2CCc3nc(NC(=O)[C@@H]4CCN(C#N)C4)sc3C2)cc1` [compound 428], the inhibition at 1.25 µM was 85.1%.
For the molecule `Cc1ccccc1-n1cc(C(=O)N2CCc3nc(NC(=O)[C@@H]4CCN(C#N)C4)sc3C2)cn1` [compound 347], the inhibition at 1.25 µM came to 87.5%.
`N#CN1CC[C@@H](C(=O)Nc2nc3c(s2)CN(C(=O)c2cccc4c2-c2ccccc2C4)CC3)C1` [compound 425]: the inhibition at 1.25 µM turned out to be 84%.
Take `N#CN1CC[C@@H](C(=O)Nc2nc3c(s2)CN(C(=O)CN2CCOCC2)CC3)C1` [compound 461]: the inhibition at 1.25 µM is 72.7%.
In the case of `N#CN1CC[C@@H](C(=O)Nc2nc3c(s2)CN(C(=O)c2sccc2Br)CC3)C1` [compound 421], the inhibition at 1.25 µM was 79.7%.
On the same count and under the same terms, then `N#CN1CC[C@@H](C(=O)Nc2nc3c(s2)CN(C(=O)C2CC2)CC3)C1` [compound 464], with 78.9%; and `N#CN1CC[C@@H](C(=O)Nc2nc3c(s2)CN(C(=O)c2ccc(N4CCCC4)cc2F)CC3)C1` [compound 451], with 82.6%.
The same measure, in the same setting: for `N#CN1CC[C@@H](C(=O)Nc2nc3c(s2)CN(C(=O)C(Br)c2ccccc2)CC3)C1` (stereo partly drawn) [compound 411] the value was 41.8%.
In the case of `CSCCC(NC(C)=O)C(=O)N1CCc2nc(NC(=O)[C@@H]3CCN(C#N)C3)sc2C1` (stereo partly drawn) [compound 388], the inhibition at 1.25 µM was -53.2%.
`N#CN1CC[C@@H](C(=O)Nc2nc3c(s2)CN(C(=O)CCc2ccccc2)CC3)C1` [compound 459]: the inhibition at 1.25 µM amounted to 72.7%.

Still in this assay, the particulars now being: 1.25 µM, crude compound library; read-out: HTS FP assay %Inhibition (1.25 µM).
As to `CC1(C(=O)N2CCc3nc(NC(=O)[C@@H]4CCN(C#N)C4)sc3C2)CCCCN1C(=O)OCc1ccccc1` (stereo partly drawn) [compound 283], the inhibition at 1.25 µM is 65.2%.
Regarding `CN(C(=O)c1cccs1)c1ccccc1C(=O)N1CCc2nc(NC(=O)[C@@H]3CCN(C#N)C3)sc2C1` [compound 16], the inhibition at 1.25 µM came to 63%.
The same measure, in the same setting: then `Cn1nc(C(=O)N2CCOCC2)cc1C(=O)N1CCc2nc(NC(=O)[C@@H]3CCN(C#N)C3)sc2C1` [compound 134], with 87.6%; and `N#CN1CC[C@@H](C(=O)Nc2nc3c(s2)CN(C(=O)c2cn(CC(=O)N4CCCC4)nn2)CC3)C1` [compound 77], with 84.1%.
Turning to `Cc1nn(-c2ccccn2)c(C)c1CC(=O)N1CCc2nc(NC(=O)[C@@H]3CCN(C#N)C3)sc2C1` [compound 231], the inhibition at 1.25 µM is 67.1%.
As for `N#CN1CC[C@@H](C(=O)Nc2nc3c(s2)CN(C(=O)C2CCN2C2CCCC2)CC3)C1` (stereo partly drawn) [compound 320], the inhibition at 1.25 µM was determined as 64.2%.
In the case of `Cc1nc(-c2c(C)c(C)nn(C)c2=O)sc1C(=O)N1CCc2nc(NC(=O)[C@@H]3CCN(C#N)C3)sc2C1` [compound 69], the inhibition at 1.25 µM was 70.5%.
As for `N#CN1CC[C@@H](C(=O)Nc2nc3c(s2)CN(C(=O)c2cc(OCc4ccccc4)ccn2)CC3)C1` [compound 66], the inhibition at 1.25 µM was 70.6%.
The same measure, in the same setting: then `N#CN1CC[C@@H](C(=O)Nc2nc3c(s2)CN(C(=O)Cc2cnn(-c4ccccc4)c2)CC3)C1` [compound 148], with 80.2%.
On to `N#CN1CC[C@@H](C(=O)Nc2nc3c(s2)CN(C(=O)[C@@H]2C[C@H]2c2ccco2)CC3)C1` [compound 32], for which the inhibition at 1.25 µM stood at 87%.
As for `CCc1ccc(C(=O)N2CCC(C(=O)N3CCc4nc(NC(=O)[C@@H]5CCN(C#N)C5)sc4C3)CC2)o1` [compound 294], the inhibition at 1.25 µM stood at 78.1%.
For the molecule `Cc1nc(C(=O)N2CCc3nc(NC(=O)[C@@H]4CCN(C#N)C4)sc3C2)co1` [compound 126], the inhibition at 1.25 µM is 70.6%.
As for `N#CN1CC[C@@H](C(=O)Nc2nc3c(s2)CN(C(=O)c2ccc(N4CCCS4(=O)=O)cc2)CC3)C1` [compound 253], the inhibition at 1.25 µM is 85.9%.
Take `N#CN1CC[C@@H](C(=O)Nc2nc3c(s2)CN(C(=O)c2ccccc2Cn2cncn2)CC3)C1` [compound 302]: the inhibition at 1.25 µM is 66.3%.
`N#CN1CC[C@@H](C(=O)Nc2nc3c(s2)CN(C(=O)c2ccc(F)c(S(=O)(=O)N4CCC4)c2)CC3)C1` [compound 221]: the inhibition at 1.25 µM is 94.8%.
For the molecule `N#CN1CC[C@@H](C(=O)Nc2nc3c(s2)CN(C(=O)Cc2ccc(NS(=O)(=O)c4c(Cl)cccc4Cl)cc2)CC3)C1` [compound 57], the inhibition at 1.25 µM came out at 84.9%.
As for `COCC1CCN(c2ccc(C(=O)N3CCc4nc(NC(=O)[C@@H]5CCN(C#N)C5)sc4C3)cc2)C1` (stereo partly drawn) [compound 229], the inhibition at 1.25 µM stood at 72.8%.
Still for that read-out and setting: for `N#CN1CC[C@@H](C(=O)Nc2nc3c(s2)CN(C(=O)c2c[nH]nc2-c2cccnc2)CC3)C1` [compound 56] the value was 67.6%.
Take `N#CN1CC[C@@H](C(=O)Nc2nc3c(s2)CN(C(=O)C2=NNC(=O)C2c2ccccc2)CC3)C1` (stereo partly drawn) [compound 168]: the inhibition at 1.25 µM was 80.3%.
`Cc1cc(COc2ccc(C(=O)N3CCc4nc(NC(=O)[C@@H]5CCN(C#N)C5)sc4C3)cc2Br)no1` [compound 173]: the inhibition at 1.25 µM was 72.5%.
As to `N#CN1CC[C@@H](C(=O)Nc2nc3c(s2)CN(C(=O)CC2=NN(c4cccc(Cl)c4)C(=O)C2)CC3)C1` [compound 262], the inhibition at 1.25 µM is 71.9%.
On to `N#CN1CC[C@@H](C(=O)Nc2nc3c(s2)CN(C(=O)c2cc(C4CC4)no2)CC3)C1` [compound 266], for which the inhibition at 1.25 µM worked out at 73.2%.
For the molecule `N#CN1CC[C@@H](C(=O)Nc2nc3c(s2)CN(C(=O)c2ccc(Cn4cc(Cl)c(C(F)(F)F)n4)o2)CC3)C1` [compound 289], the inhibition at 1.25 µM stood at 81.4%.
`Cc1cc(C)cc(N(CCC(=O)N2CCc3nc(NC(=O)[C@@H]4CCN(C#N)C4)sc3C2)S(=O)(=O)c2ccc(Cl)cc2)c1` [compound 299]: the inhibition at 1.25 µM came out at 87.8%.
For `N#CN1CC[C@@H](C(=O)Nc2nc3c(s2)CN(C(=O)c2cccn2Cc2ccccn2)CC3)C1` [compound 332], the inhibition at 1.25 µM turned out to be 73.2%.
As to `N#CN1CC[C@@H](C(=O)Nc2nc3c(s2)CN(C(=O)c2cc(Cn4cc(Cl)cn4)cs2)CC3)C1` [compound 191], the inhibition at 1.25 µM came to 86.7%.
As for `N#CN1CC[C@@H](C(=O)Nc2nc3c(s2)CN(C(=O)c2ccc(-c4cnco4)cc2)CC3)C1` [compound 171], the inhibition at 1.25 µM is 77.5%.
`N#CN1CC[C@@H](C(=O)Nc2nc3c(s2)CN(C(=O)c2ccn(-c4ncc(C(F)(F)F)cc4Cl)n2)CC3)C1` [compound 51]: the inhibition at 1.25 µM was determined as 85.7%.
As for `N#CN1CC[C@@H](C(=O)Nc2nc3c(s2)CN(C(=O)c2ccc(-n4ncc(Cl)c(Cl)c4=O)cc2)CC3)C1` [compound 102], the inhibition at 1.25 µM turned out to be 69.3%.
On to `CN(Cc1ccccc1)C(=O)N1CCC(C(=O)N2CCc3nc(NC(=O)[C@@H]4CCN(C#N)C4)sc3C2)CC1` [compound 250], for which the inhibition at 1.25 µM turned out to be 67.7%.
On the same count and under the same terms, for `N#CN1CC[C@@H](C(=O)Nc2nc3c(s2)CN(C(=O)Cc2csc(-c4cccs4)n2)CC3)C1` [compound 105] the value was 85.3%; for `N#CN1CC[C@@H](C(=O)Nc2nc3c(s2)CN(C(=O)c2cnoc2-c2cccs2)CC3)C1` [compound 20], 73%; for `Cc1noc(C)c1Cc1ccc(C(=O)N2CCc3nc(NC(=O)[C@@H]4CCN(C#N)C4)sc3C2)o1` [compound 95], 81.3%.
